Reference: PMC3750255, “Inhibition of Mycoplasma pneumoniae growth by FDA-approved anticancer and antiviral nucleoside and nucleobase analogs” (BMC Microbiology, 2013)
Converted amounts (≈) assume the structure as drawn. Read-outs that look alike come from different tables or passages of the source.

Key:
[1] = test system: M. pneumoniae wild type (laboratory strain M129); experiment: Mpn growth inhibition in 96-well plates (growth index A450/A560), wild type strain; format: cell-based, Mycoplasma pneumoniae; conditions: for MIC: Mycoplasmoides pneumoniae
Experimental: (§1) A series dilution of each compound in Mycoplasma growth medium was added to Mpn cultures in 96-well plates. The plates were sealed and incubated at 37°C. Mpn growth was monitored by using growth index value e.g. the ratio of absorbance at 450 nm and 560 nm of the culture medium. Thirty nucleoside and nucleobase analogs and a nucleoside transporter inhibitor were included, and two Mpn strains, wild type and a thyA mutant (lacking TS activity), were used.
(§2) Nucleoside and nucleobase analogs were dissolved in dimethyl sulfoxide (DMSO) as stock solutions and diluted with Mpn culture medium to the desired concentration immediately prior to use.
(§3) Mpn laboratory strain M129 wild type and a thyA mutant strain [31] were used in this study. Mpn was cultured at 37°C in a CO2 incubator using 75 cm^2 tissue culture flasks containing 50 ml Hayflick’s medium, and harvested at day 4 when the medium color change was observed. The cells were harvested and the pellet was resuspended in 6 ml fresh medium and the cfu/ml was determined by serial dilution (10-fold) and plating on broth agar plate. Colonies was counted and cfu/ml was calculated.
(§4) Inhibition studies were performed in 96-well plates containing 200 μl Mpn culture (approximately 10^6 cfu ml^-1) in Hayflick’s medium and 200 μl each compound in series dilutions (2-fold) with the growth medium, with three to four replicas. The plates were sealed with clear adhesive sheets and incubated at 37°C incubator. Absorbance ratio at 450 nm and 560 nm was used as Mpn growth index, which was measured daily, and by visual detection for at least 8 days, as previously described. […] The MICs (minimal inhibitory concentration required to inhibit Mpn growth to 90%) were determined as the lowest concentration at which the growth index was ≈ 10% of the control values (at the time when the control culture medium color turned yellow), essentially as described.

[2] = test system: M. pneumoniae thyA mutant (lacking TS activity); experiment: microbe, parasite or virus in culture; format: cell-based, Mycoplasma pneumoniae; conditions: Mycoplasmoides pneumoniae, read-out: thyA mutant MIC
Experimental: as §1, §2, §3, §4

[3] = test system: Mpn wild type cells; experiment: Uptake and metabolism of tritium labelled natural nucleoside and nucleobases in the presence of analogs; format: cell-based, Mycoplasma pneumoniae; conditions: 10 μM analog, 70 hours
Experimental: The cells were harvested and analyzed essentially as described. Analogs used were dipyridamole, 6-thioguanine (6-TG), trifluorothymidine (TFT), gemcitabine (dFdC) and 5-fluorodeoxyuridine (5FdU). Total uptake is the percent of radioactivity recovered in the cells divided by total radioactivity added to the growth medium. Percent of acid insoluble (radioactivity found in DNA and RNA) was also calculated. These experiments were done more than three times and data are given as mean ± SD.

[4] = target: T1, Mpn HPRT (Mycoplasmoides pneumoniae, UniProt P75119); conditions: as substrate of Mpn HPRT
T1 sequence (P75119 1-175): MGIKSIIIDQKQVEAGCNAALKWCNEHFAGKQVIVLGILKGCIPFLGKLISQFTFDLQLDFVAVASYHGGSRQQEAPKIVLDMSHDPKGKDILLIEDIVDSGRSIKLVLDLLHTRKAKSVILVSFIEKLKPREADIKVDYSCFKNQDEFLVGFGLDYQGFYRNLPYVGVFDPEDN
Experimental: Data are from at least three independent measurements and are presented as mean ± standard deviation (SD).
(§5) The reaction was initiated by addition of the enzyme, and at 0, 5, 10, and 15 min intervals, 10 μl reaction mixture was withdrawn and spotted onto the DE81 filter paper and dried. The unreacted substrate was washed and the products were eluted and counted in a liquid scintillation counter. With [^3H]-Gua as substrate the reaction (in a total of 25 μl) was initiated by addition of the enzyme (10 μl), incubated at 37°C for 2 min, stopped by addition of 1 M HCl (10 μl), and placed immediately on ice. After neutralization, 15 μl of the mixture was spotted onto the DE81-filter paper. The filters were then washed, and the products were eluted and counted by liquid scintillation.

[5] = target: T1, Mpn HPRT; experiment: biochemical; conditions: substrate hypoxanthine, 10 μM [3H]-hypoxanthine
Experimental: as §5

[6] = target: T2, human HPRT (Homo sapiens, UniProt P00492); experiment: HPRT inhibition, DE-81 filter paper assay; format: biochemical
T2 construct: made in house
T2 sequence (P00492 1-218): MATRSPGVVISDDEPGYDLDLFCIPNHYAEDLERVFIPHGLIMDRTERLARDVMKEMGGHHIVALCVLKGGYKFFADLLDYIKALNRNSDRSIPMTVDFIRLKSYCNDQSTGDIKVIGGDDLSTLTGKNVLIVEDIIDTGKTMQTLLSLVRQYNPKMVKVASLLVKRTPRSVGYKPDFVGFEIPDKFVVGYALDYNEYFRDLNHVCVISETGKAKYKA
Experimental: as §5

[7] = 37°C, radioactivity in cells / total added
[8] = acid insoluble fraction / total in cells

| SMILES | MIC ([1]; read-out: Wild type MIC) | MIC [2] | other results |
| --- | --- | --- | --- |
| Nc1nc(F)nc2c1ncn2[C@@H]1O[C@H](COP(=O)(O)O)[C@@H](O)[C@@H]1O [Fludarabine phosphate] | > 500 µg/mL | > 500 µg/mL | – |
| Nc1nc(O)c2ncn(COC(CO)CO)c2n1 [Gancyclovir] | 7.8 µg/mL (≈ 30.6 µM) | > 500 µg/mL | Inhibition of wild type Mpn growth (in words) [1]: inhibited wild type Mpn |
| Nc1ccn([C@@H]2O[C@H](CO)[C@@H](O)C2(F)F)c(=O)n1 [Gemcitabine (dFdC), Gemcitabine] | 2.4 µg/mL (≈ 9.12 µM) | 2.4 µg/mL (≈ 9.12 µM) | MIC ([1]; read-out: MIC (Mpn growth), strain not specified, 90% growth inhibition): ~2.5 µg/mL (≈ 9.5 µM); MIC (Mpn growth) ([1]; strain not specified, 90% growth inhibition): approximately 2 μg ml^-1; [3H]-Ade Total uptake [3, 7]: 0.41±0.08%; [3H]-Gua Total uptake [3, 7]: 0.10±0.02%; [3H]-Hx Total uptake [3, 7]: 0.009±0.0002%; [3H]-Ura Total uptake [3, 7]: 0.12±0.001%; [3H]-dT Total uptake [3, 7]: 5.2±0.4%; [3H]-Ade Incorporation [3, 8]: 39±8%; [3H]-Gua Incorporation [3, 8]: 90±6%; [3H]-Hx Incorporation [3, 8]: 67±7%; [3H]-Ura Incorporation [3, 8]: 26±6%; [3H]-dT Incorporation [3, 8]: 96.7±1.1% |
| Nc1nc2nc[nH]c2c(=O)[nH]1 [Gua, guanine] | – | – | Hill coefficient [4]: 3.5; Vmax [4]: 2.7 ± 0.1 µmol/min/mg; S0.5 ([4]; Hill equation): 107.6 ± 6.2 µM |
| Nc1ccn([C@@H]2CS[C@H](CO)O2)c(=O)n1 [Lamivudine] | > 500 µg/mL | > 500 µg/mL | – |
| COc1c(C)c2c(c(O)c1C/C=C(\C)CCC(=O)OCCN1CCOCC1)C(=O)OC2 [Mycophenolate mofetil] | 250 µg/mL (≈ 577 µM) | 250 µg/mL (≈ 577 µM) | – |
| CC(=O)CCCCn1c(=O)c2c(ncn2C)n(C)c1=O [Pentoxifylline] | 62.5 µg/mL (≈ 225 µM) | > 500 µg/mL | Inhibition of wild type Mpn growth (in words) [1]: inhibited wild type Mpn |
| CCc1nc(N)nc(N)c1-c1ccc(Cl)cc1 [Pyrimethamine] | > 500 µg/mL | > 500 µg/mL | – |
| NC(=O)c1ncn([C@@H]2O[C@H](CO)[C@@H](O)[C@H]2O)n1 [Ribavirin] | 62.5 µg/mL (≈ 256 µM) | > 500 µg/mL | Inhibition of wild type Mpn growth (in words) [1]: inhibited wild type Mpn |
| Cc1cn([C@H]2C=C[C@@H](CO)O2)c(=O)[nH]c1=O [Stavudine] | 7.8 µg/mL (≈ 34.8 µM) | 17.8 µg/mL (≈ 79.4 µM) | – |
| Cn1c(=O)c2[nH]cnc2n(C)c1=O [Theophylline] | > 500 µg/mL | > 500 µg/mL | IC50 [5]: > 4000 µM; IC50 [6]: 1580 ± 134 µM |
| CC(C)[C@H](N)C(=O)OCCOCn1cnc2c(=O)[nH]c(N)nc21 [Valacyclovir] | > 500 µg/mL | > 500 µg/mL | Inhibition of Mpn growth (in words) ([1]; strain not specified): did not inhibit Mpn growth |
| Nc1ccn([C@H]2CC[C@@H](CO)O2)c(=O)n1 [Zalcitabine] | > 500 µg/mL | > 500 µg/mL | – |
| Cc1cn([C@H]2C[C@H](N=[N+]=[N-])[C@@H](CO)O2)c(=O)[nH]c1=O [Zidovudine] | 7.8 µg/mL (≈ 29.2 µM) | 7.8 µg/mL (≈ 29.2 µM) | – |
| CN(C)[C@@H]1C(O)=C(C(N)=O)C(=O)[C@@]2(O)C(O)=C3C(=O)c4c(O)cccc4[C@@](C)(O)[C@H]3C[C@@H]12 [tetracycline] | – | – | Mpn growth in control cultures (in words) ([1]; 2 μg/ml tetracycline, up to 8 days): no growth; MIC ([1]; strain not specified, 90% growth inhibition, read-out: MIC (Mpn growth)): 0.1 µg/mL (≈ 0.225 µM) |
